# Measured values reported in patent US6339042B1, “Herbicidal N-cyclohexadienyl heteroaryloxyacetamides” (American Cyanamid Co., priority 1999, dated 2002).
# Columns and labels:
# Details in all cases: three weeks after treatment
# [1] = test system: Amaranthus tuberculatus; experiment: Pre-emergence herbicidal evaluation, AMATA; type: in vivo
# From the text: (§1) The treated pots are then placed on greenhouse benches, watered and cared for in accordance with conventional greenhouse procedures.
# [2] = test system: Galium aparine; experiment: Pre-emergence herbicidal evaluation, GALAP; type: in vivo
# From the text: as §1
# [3] = test system: Alopecurus myosuroides; experiment: Pre-emergence herbicidal evaluation, ALOMY; type: in vivo
# From the text: as §1
# [4] = test system: Apera spica venti; experiment: Pre-emergence herbicidal evaluation, APESV; type: in vivo
# From the text: as §1
# [5] = test system: Echinochloa crus-galli; experiment: Pre-emergence herbicidal evaluation, ECHCG; type: in vivo
# From the text: as §1
# [6] = test system: Setaria viridis; experiment: Pre-emergence herbicidal evaluation, SETVI; type: in vivo
# From the text: as §1
# [7] = test system: Lolium perenne; experiment: Pre-emergence herbicidal evaluation, LOLPE; type: in vivo
# From the text: as §1
# [8] = test system: Triticum aestivum; experiment: Pre-emergence herbicidal evaluation, TRZAW; type: in vivo
# From the text: as §1
# [9] = test system: Hordeum vulgare; experiment: Pre-emergence herbicidal evaluation, HORVW; type: in vivo
# From the text: as §1
# [10] = test system: Zea mays; experiment: Pre-emergence herbicidal evaluation, ZEAMX; type: in vivo
# From the text: as §1
# [11] = test system: Glycine max; experiment: Pre-emergence herbicidal evaluation, GLXMA; type: in vivo
# From the text: as §1
# [12] = test system: Oryza sativum; experiment: Pre-emergence herbicidal evaluation, ORYSA; type: in vivo
# From the text: as §1
# [13] = test system: Amaranthus tuberculatus; experiment: Post-emergence herbicidal evaluation, AMATA; type: in vivo
# [14] = test system: Galium aparine; experiment: Post-emergence herbicidal evaluation, GALAP
# Procedure: (§2) The compounds of the invention are tested for pre- and post-emergence herbicidal activity.
# (§3) Each pot is examined three weeks after treatment and phytotoxicity is assessed according to the rating system set forth below.
# (§4) These acetone solutions are diluted with water and the resulting formulations applied at dosage levels equivalent of about 0.4 to 0.1 kg per hectare of test compound per pot. After spraying the plants are placed on greenhouse benches and are cared for in the usual manner, commensurate with conventional greenhouse practices.
# [15] = test system: Alopecurus myosuroides; experiment: Post-emergence herbicidal evaluation, ALOMY
# [16] = test system: Apera spica venti; experiment: Post-emergence herbicidal evaluation, APESV
# Procedure: as §2, §3, §4
# [17] = test system: Echinochloa crus-galli; experiment: Post-emergence herbicidal evaluation, ECHCG
# [18] = test system: Setaria viridis; experiment: Post-emergence herbicidal evaluation, SETVI
# [19] = test system: Lolium perenne; experiment: Post-emergence herbicidal evaluation, LOLPE
# Procedure: as §3, §4
# [20] = test system: Triticum aestivum; experiment: Post-emergence herbicidal evaluation, TRZAW
# [21] = test system: Hordeum vulgare; experiment: Post-emergence herbicidal evaluation, HORVW
# [22] = test system: Zea mays; experiment: Post-emergence herbicidal evaluation, ZEAMX
# Procedure: as §3, §4
# [23] = test system: Glycine max; experiment: Post-emergence herbicidal evaluation, GLXMA
# [24] = test system: Oryza sativum; experiment: Post-emergence herbicidal evaluation, ORYSA
compound,measurement,setting,value
CC1=CC(N(C(=O)COc2nc3ccccc3o2)C(C)C)=CC(C)(C)C1 [Example 17],phytotoxicity rating AMATA,[1]; 0.100 kg/ha,4 (4 - Injury)
same,phytotoxicity rating AMATA,[1]; 0.200 kg/ha,5 (5 - Definite injury)
same,phytotoxicity rating AMATA,[1]; 0.400 kg/ha,5 (5 - Definite injury)
same,phytotoxicity rating AMATA,[1]; 0.800 kg/ha,9 (9 - Complete kill)
same,phytotoxicity rating GALAP,[2]; 0.100 kg/ha,0 (0 - No effect)
same,phytotoxicity rating GALAP,[2]; 0.200 kg/ha,0 (0 - No effect)
same,phytotoxicity rating GALAP,[2]; 0.400 kg/ha,0 (0 - No effect)
same,phytotoxicity rating GALAP,[2]; 0.800 kg/ha,0 (0 - No effect)
same,phytotoxicity rating ALOMY,[3]; 0.100 kg/ha,3 (3 - Moderate effect)
same,phytotoxicity rating ALOMY,[3]; 0.200 kg/ha,6 (6 - Herbicidal effect)
same,phytotoxicity rating ALOMY,[3]; 0.400 kg/ha,6 (6 - Herbicidal effect)
same,phytotoxicity rating ALOMY,[3]; 0.800 kg/ha,9 (9 - Complete kill)
same,phytotoxicity rating APESV,[4]; 0.100 kg/ha,7 (7 - Good herbicidal effect)
same,phytotoxicity rating APESV,[4]; 0.200 kg/ha,8 (8 - Approaching complete kill)
same,phytotoxicity rating APESV,[4]; 0.400 kg/ha,9 (9 - Complete kill)
same,phytotoxicity rating APESV,[4]; 0.800 kg/ha,9 (9 - Complete kill)
same,phytotoxicity rating ECHCG,[5]; 0.100 kg/ha,4 (4 - Injury)
same,phytotoxicity rating ECHCG,[5]; 0.200 kg/ha,6 (6 - Herbicidal effect)
same,phytotoxicity rating ECHCG,[5]; 0.400 kg/ha,7 (7 - Good herbicidal effect)
same,phytotoxicity rating ECHCG,[5]; 0.800 kg/ha,9 (9 - Complete kill)
same,phytotoxicity rating SETVI,[6]; 0.100 kg/ha,3 (3 - Moderate effect)
same,phytotoxicity rating SETVI,[6]; 0.200 kg/ha,5 (5 - Definite injury)
same,phytotoxicity rating SETVI,[6]; 0.400 kg/ha,8 (8 - Approaching complete kill)
same,phytotoxicity rating SETVI,[6]; 0.800 kg/ha,8 (8 - Approaching complete kill)
same,phytotoxicity rating LOLPE,[7]; 0.100 kg/ha,5 (5 - Definite injury)
same,phytotoxicity rating LOLPE,[7]; 0.200 kg/ha,9 (9 - Complete kill)
same,phytotoxicity rating LOLPE,[7]; 0.400 kg/ha,9 (9 - Complete kill)
same,phytotoxicity rating LOLPE,[7]; 0.800 kg/ha,9 (9 - Complete kill)
same,phytotoxicity rating TRZAW,[8]; 0.100 kg/ha,1 (1 - Trace effect)
same,phytotoxicity rating TRZAW,[8]; 0.200 kg/ha,2 (2 - Slight effect)
same,phytotoxicity rating TRZAW,[8]; 0.400 kg/ha,2 (2 - Slight effect)
same,phytotoxicity rating TRZAW,[8]; 0.800 kg/ha,4 (4 - Injury)
same,phytotoxicity rating HORVW,[9]; 0.100 kg/ha,1 (1 - Trace effect)
same,phytotoxicity rating HORVW,[9]; 0.200 kg/ha,2 (2 - Slight effect)
same,phytotoxicity rating HORVW,[9]; 0.400 kg/ha,2 (2 - Slight effect)
same,phytotoxicity rating HORVW,[9]; 0.800 kg/ha,4 (4 - Injury)
same,phytotoxicity rating ZEAMX,[10]; 0.100 kg/ha,0 (0 - No effect)
same,phytotoxicity rating ZEAMX,[10]; 0.200 kg/ha,0 (0 - No effect)
same,phytotoxicity rating ZEAMX,[10]; 0.400 kg/ha,1 (1 - Trace effect)
same,phytotoxicity rating ZEAMX,[10]; 0.800 kg/ha,3 (3 - Moderate effect)
same,phytotoxicity rating GLXMA,[11]; 0.100 kg/ha,0 (0 - No effect)
same,phytotoxicity rating GLXMA,[11]; 0.200 kg/ha,0 (0 - No effect)
same,phytotoxicity rating GLXMA,[11]; 0.400 kg/ha,0 (0 - No effect)
same,phytotoxicity rating GLXMA,[11]; 0.800 kg/ha,1 (1 - Trace effect)
same,phytotoxicity rating ORYSA,[12]; 0.100 kg/ha,2 (2 - Slight effect)
same,phytotoxicity rating ORYSA,[12]; 0.200 kg/ha,3 (3 - Moderate effect)
same,phytotoxicity rating ORYSA,[12]; 0.400 kg/ha,4 (4 - Injury)
same,phytotoxicity rating ORYSA,[12]; 0.800 kg/ha,4 (4 - Injury)
same,phytotoxicity rating AMATA,[13]; 0.100 kg/ha,3 (3 - Moderate effect)
same,phytotoxicity rating AMATA,[13]; 0.200 kg/ha,4 (4 - Injury)
same,phytotoxicity rating AMATA,[13]; 0.400 kg/ha,5 (5 - Definite injury)
same,phytotoxicity rating GALAP,[14]; 0.100 kg/ha,1 (1 - Trace effect)
same,phytotoxicity rating GALAP,[14]; 0.200 kg/ha,3 (3 - Moderate effect)
same,phytotoxicity rating GALAP,[14]; 0.400 kg/ha,4 (4 - Injury)
same,phytotoxicity rating ALOMY,[15]; 0.100 kg/ha,3 (3 - Moderate effect)
same,phytotoxicity rating ALOMY,[15]; 0.200 kg/ha,6 (6 - Herbicidal effect)
same,phytotoxicity rating ALOMY,[15]; 0.400 kg/ha,8 (8 - Approaching complete kill)
same,phytotoxicity rating APESV,[16]; 0.100 kg/ha,6 (6 - Herbicidal effect)
same,phytotoxicity rating APESV,[16]; 0.200 kg/ha,8 (8 - Approaching complete kill)
same,phytotoxicity rating APESV,[16]; 0.400 kg/ha,8 (8 - Approaching complete kill)
same,phytotoxicity rating ECHCG,[17]; 0.100 kg/ha,3 (3 - Moderate effect)
same,phytotoxicity rating ECHCG,[17]; 0.200 kg/ha,4 (4 - Injury)
same,phytotoxicity rating ECHCG,[17]; 0.400 kg/ha,6 (6 - Herbicidal effect)
same,phytotoxicity rating SETVI,[18]; 0.100 kg/ha,5 (5 - Definite injury)
same,phytotoxicity rating SETVI,[18]; 0.200 kg/ha,6 (6 - Herbicidal effect)
same,phytotoxicity rating SETVI,[18]; 0.400 kg/ha,6 (6 - Herbicidal effect)
same,phytotoxicity rating LOLPE,[19]; 0.100 kg/ha,4 (4 - Injury)
same,phytotoxicity rating LOLPE,[19]; 0.200 kg/ha,7 (7 - Good herbicidal effect)
same,phytotoxicity rating LOLPE,[19]; 0.400 kg/ha,8 (8 - Approaching complete kill)
same,phytotoxicity rating TRZAW,[20]; 0.100 kg/ha,0 (0 - No effect)
same,phytotoxicity rating TRZAW,[20]; 0.200 kg/ha,1 (1 - Trace effect)
same,phytotoxicity rating TRZAW,[20]; 0.400 kg/ha,2 (2 - Slight effect)
same,phytotoxicity rating HORVW,[21]; 0.100 kg/ha,0 (0 - No effect)
same,phytotoxicity rating HORVW,[21]; 0.200 kg/ha,0 (0 - No effect)
same,phytotoxicity rating HORVW,[21]; 0.400 kg/ha,0 (0 - No effect)
same,phytotoxicity rating ZEAMX,[22]; 0.100 kg/ha,0 (0 - No effect)
same,phytotoxicity rating ZEAMX,[22]; 0.200 kg/ha,0 (0 - No effect)
same,phytotoxicity rating ZEAMX,[22]; 0.400 kg/ha,1 (1 - Trace effect)
same,phytotoxicity rating GLXMA,[23]; 0.100 kg/ha,3 (3 - Moderate effect)
same,phytotoxicity rating GLXMA,[23]; 0.200 kg/ha,3 (3 - Moderate effect)
same,phytotoxicity rating GLXMA,[23]; 0.400 kg/ha,6 (6 - Herbicidal effect)
same,phytotoxicity rating ORYSA,[24]; 0.100 kg/ha,0 (0 - No effect)
same,phytotoxicity rating ORYSA,[24]; 0.200 kg/ha,3 (3 - Moderate effect)
same,phytotoxicity rating ORYSA,[24]; 0.400 kg/ha,4 (4 - Injury)
